Results: patent US20140322076A1, “ANTIMICROBIAL COMPOSITION” (priority 2011, published 2014)

Key:
Format in all cases: cell-based
[1] = tested on: Escherichia coli (E. coli - ATCC #10536); test: Automated assessment of efficacy in surfactant base (Example 4); conditions: for MBC: in 2.85% sodium cocoyl glycinate + 1.85% sodium lauroamphoacetate solution at pH 10; for 15 second bactericidal efficacy (in words): in combination with alpha-terpineol at concentrations lower than their MBC, surfactant formulation
Method: In these examples, the efficacy of combinations of isopropylmethylphenols and terpineol were tested in a surfactant cleansing formulation comprising 2.85% sodium cocoyl glycinate and 1.85% sodium lauroamphoacetate. This corresponds to a 50% in use dilution with water of a typical neat formulation containing 5.7% cocoyl glycinate and 3.7% % sodium lauroamphoacetate during hand washing. Solutions were prepared such that the concentrations of the surfactant components and test actives were 1.1 times the final desired concentration in order to allow for dilution with the bacterial inoculum in the test. The solutions were manually adjusted to pH 10.0 by dropwise addition of sodium hydroxide solution, as measured with a pH meter at ambient temperature. Solutions of the isopropylmethylphenols and/or terpineols were prepared at a maximum of 24 hours before testing. The same terpineol was used as in Example 1.
The efficacy of the combinations of the present invention was determined against the same bacterium as in Example 1, Escherichia coli (E. coli—ATCC #10536), at a concentration of approximately 1×10^8 bacteria per mL.
Tests were conducted using standard microtiter plate assays using an automated liquid handling system. 270 μl of the surfactant test solution was pipetted into each well of the microtitre plate (Nunc F Gamma Irradiated 96F untreated microtitre plates of clear polystyrene) and 30 μl of the bacterial suspension was then added. After exactly 15 seconds of bacterial exposure, a 30 μl volume of bacterial cells was withdrawn and transferred to 270 μl of D/E quench solution. After 5 minutes in the D/E quench, the optical density (OD) was measured for each plate in turn at two specific wavelengths (450 nm and 590 nm). These provide a dual check of antimicrobial activity, as the OD450 reading is specific for the yellow colour of D/E quench when bacterial growth is observed, whereas OD590 is specific for the initial purple colour of the D/E quench which is retained if no bacterial growth is observed. After the time zero OD measurements, plates were then incubated at 37° C. overnight (16 hours) before repeating the OD measurements. Delta OD values were calculated by subtracting […] at time=16 hours.
Bacterial growth is observed as an increase in OD450 and a decrease in OD590. To identify antibacterially efficacious systems (those preventing appreciable bacterial growth after incubation), the following threshold changes in OD readings have been adopted: if (1). OD450 increases by less than 0.2 absorbance unit (AU) on incubation and (2). OD590 decreases by less than 0.35 AU on incubation. Conversely, where OD450 increases by more than 0.1 AU and OD590 decreases by more than 0.1 AU after incubation, corresponding to a colour shift from purple to yellow, the test system allows bacterial growth and is not deemed efficacious. Four replicate measurements in the same plate have been made for each test system. The number of replicate wells showing either bacterial growth or no growth is also readily assessed by eye by following the colour change. Thymol and terpineol were tested both alone and in combination for comparison purposes.
In each case, binary mixtures were assessed in the weight to weight ratio isopropylmethylphenol to alpha terpineol of 1:2.5.

[2] = tested on: Escherichia coli (10536 strain); test: Antimicrobial efficacy, 15 seconds contact suspension assay (Examples 1 and 3); conditions: for MBC (Minimum Biocidal Concentration): lowest concentration with complete kill after 15 seconds contact, active alone, upper boundary to the MBC; for NMBS: Example 3, gamma-terpineol, concentrations (% w/v) as given per example; for NMBS / NMBS (mean bacterial survival): contact time 15 seconds; for NMBS (mean bacterial survival): phenol and terpineol concentration (% w/v) as given per example, 0 = complete kill, triplicate
Method: The efficacies of antimicrobial agents can be usefully compared by determining the Minimum Biocidal Concentration (MBC). The MBC is defined as the lowest absolute concentration of the particular active that provides complete kill (zero bacterial growth).
ΣFBC=FBC(component 1)+FBC(component 2)+FBC(component 3)+ . . . etc
such that • ΣFBC≧1 corresponds to additive or antagonistic bactericidal activity • ΣFBC<1 corresponds to synergistic bactericidal activity
Antimicrobial efficacy is tested against a representative pathogenic bacterial organism, Gram negative Escherichia coli. Concentrations of actives are expressed in terms of the percentage weight/volume (% w/v) throughout Example 1.
An overnight culture of Escherichia coli (10536 strain) was prepared in 50 ml total volume of TSB broth, grown for ca. 18 hrs at 37° C. and shaken at 150 rpm. 1 ml of this overnight E. coli culture was transferred to 50 ml of fresh TSB broth and incubated at 37° C. at 150 rpm for ca. 4 hours. This culture was separated into equal volumes and centrifuged at 4000 rpm for 15 minutes, washed with sterile saline (0.85% NaCl), centrifuged once more and re-suspended in saline to give a final concentration of 0.8 OD620 equivalent to about 10^8 cells per millilitre for this particular organism. Here, OD620 indicates the absorbance of a sample in a cuvette of 1.0 cm path length at a wavelength of 620 nm. This bacterial stock was used for assaying against antimicrobial actives (in triplicate).
The following assay describes the testing of 8 materials using 6 dilutions across half of a 96-well micro titre plate (MTP). Using this approach it is possible to assay 16 actives (without replicates) with one full dilution plate, replicating this set up in two halves of the plate columns, 1-6 and 7-12.
1M solutions of the test actives were prepared in dimethylsulphoxide (DMSO).
Aliquots (270 μl) of the materials at 1.11 times the final concentration were dispensed into the wells of the MTP along one column (A1-H1). This MTP was labelled as the “Screening plate”.
In another MTP, labelled as the “Dilution plate”, 270 μl of D/E neutralising solution from DIFCO Composition was added to column 1. The composition of the neutralising solution was as follows: pancreatic digest of casein, 5.0 g/L; Yeast Extract, 2.5 g/L; Dextrose, 10 g/L, sodium thioglycollate, 1.0 g/L, sodium thiosulphate, 6.0 g/L; sodium bisulphite, 2.5 g/L; Polysorbate 80, 5.0 g/L; lecithin 7.0 g/L; bromocresol purple, 0.02 g/L with a pH in the range 7.6±0.2.
270 μl of tryptone diluent solution was added to all the remaining wells of the Dilution MTP (columns 2-6).
Bacterial stock (30 μl) was then added to the prepared 270 μl of the solution of actives in the Screening Plate and mixed, using a multichannel pipette with 8 tips to aspirate and dispense the same volume of bacterial stock in parallel to 8 wells in rows A-H. After a contact time of 15 seconds, the mixtures were quenched by transferring 30 μl volumes of the mixtures into the 270 μl D/E neutralising solution in the prepared dilution plate, using aspiration to mix. After exactly 5 minutes in the D/E neutralising solution, 30 μl volumes were transferred from column 1 to column 2 of the Dilution MTP and mixed, before transferring further 30 μl volumes from column 2 into column 3. This process was repeated serially diluting the bacteria across the plate to column 6.
30 μl volumes from each well in the Dilution MTP were transferred onto pre-labelled segment of Tryptone Soya Agar (TSA) plates starting from the lowest bacterial concentration (highest dilution, column 6) to the highest bacterial concentration (column 1). The TSA plates were allowed to stand for ca. 2 hours so that the 30 μl inocula spots could dry and the plates were then inverted and incubated overnight at 37° C. before enumerating the bacterial colonies at the labelled dilutions to determine the effects of the actives on bacterial growth.

[3] = tested on: Escherichia coli (E. coli - ATCC #10536); test: High resolution MBC synergy assay in phosphate buffer containing 35% dipropylene glycol (Example 2); conditions: for ΣFBC: calculated from Ca/MBCA + Cb/MBCB; for MBC of the component alone (MBCA, MBCB): complete kill in 15 seconds, phosphate buffer, 35% DPG
Method: The materials were sourced in the same way as for Example 1. Synergy tests were conducted using standard microtiter plate assays with phosphate buffer containing 35% dipropylene glycol (DPG). […] The MBC plate was inoculated one column at a time with the test microorganism. An aliquot of the inoculated well was transferred at 15 seconds to a plate containing a neutralizing agent (D/E Neutralizing Broth), mixed and held for 5 minutes before being transferred to a growth plate containing trypticase soy broth (TSB). The TSB plate was incubated at 37° C. and read for the presence/absence of growth at 24 hours. […] This microorganism is representative of natural contaminants in many consumer and industrial applications.

SMILES | MBC [1] | MBC (Minimum Biocidal Concentration) [2] | NMBS [2] | NMBS (mean bacterial survival) [2] | further results
Cc1cc(O)ccc1C(C)C [4-isopropyl-3-methylphenol] | >0.2 % w/v | 0.075 % w/v | – | – | 15 second bactericidal efficacy (in words) [1]: complete kill in all 4 replicates
CC1=CCC(C(C)(C)O)CC1 (stereo not drawn) [alpha-terpineol] | >0.5 % w/v | – | – | – | reduction of the terpineol concentration required for complete kill ([2]; 0.4% alone to […] in combination with […] w/v 4-isopropyl-3-methylphenol or 3-isopropyl-5-methylphenol): 2.7 fold; ΣFBC [3]: 1.00; MBC of the component alone (MBCA, MBCB) [3]: 0.6 weight %
Cc1cc(O)cc(C(C)C)c1 [3-isopropyl-5-methylphenol] | >0.2 % w/v | 0.05 % w/v | – | – | 15 second bactericidal efficacy (in words) [1]: complete kill in all 4 replicates; ΣFBC [3]: 1.00; MBC of the component alone (MBCA, MBCB) [3]: 0.5 weight %
Cc1cc(O)ccc1C(C)C [3:5, 4-isopropyl-3-methylphenol] | – | – | 4.98 log CFU/ml | – | –
Cc1ccc(C(C)C)c(O)c1 [1:2, thymol] | – | – | – | 0 log CFU/ml | –
Cc1cc(O)ccc1C(C)C [3:7, 4-isopropyl-3-methylphenol] | – | – | 7.79 log CFU/ml | – | –
CC1=CCC(O)(C(C)C)CC1 (centres unmarked) [1:7, terpineol] | – | – | – | 7 log CFU/ml | –
Cc1ccc(C(C)C)c(O)c1 [1:3, thymol] | – | – | – | >7 log CFU/ml | –
CC(C)=C1CCC(C)(O)CC1 (centres unmarked) [3:4, gamma-terpineol] | – | – | 7.84 log CFU/ml | – | –
Cc1ccc(C(C)C)c(O)c1 [thymol, thymol (2-isopropyl-5-methylphenol)] | >0.2 % w/v | 0.05 % w/v | – | – | –
